Where two headings read alike, the source gives them in different places.
Target: T1, IRAK4 (Homo sapiens, UniProt Q9NWZ3)
T1 construct: endogenous in cells; host or cells: Karpas299
T1 sequence (Q9NWZ3 1-460): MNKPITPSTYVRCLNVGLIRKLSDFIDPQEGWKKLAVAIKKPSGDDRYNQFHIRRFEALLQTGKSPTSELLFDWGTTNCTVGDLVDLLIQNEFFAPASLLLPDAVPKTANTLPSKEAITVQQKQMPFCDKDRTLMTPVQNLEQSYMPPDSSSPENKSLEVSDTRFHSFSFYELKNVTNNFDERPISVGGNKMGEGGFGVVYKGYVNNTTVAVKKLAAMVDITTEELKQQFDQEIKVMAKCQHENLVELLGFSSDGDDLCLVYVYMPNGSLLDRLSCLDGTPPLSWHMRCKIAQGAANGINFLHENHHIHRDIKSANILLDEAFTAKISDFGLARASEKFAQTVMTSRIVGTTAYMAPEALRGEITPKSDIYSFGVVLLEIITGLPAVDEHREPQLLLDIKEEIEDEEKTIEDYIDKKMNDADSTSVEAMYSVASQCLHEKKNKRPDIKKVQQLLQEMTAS
Experiment: IRAK4 Degradation Assay (Karpas299, HTRF/TR-FRET)
Format: cell-based
Conditions: Karpas-299 cells; for Dmax: maximum percentage of degradation
Experimental: IRAK4 degradation was measured using a TR-FRET-based method (Degorce, François, et al. Current chemical genomics. 2009, 3: 22). Karpas299 maintained in RPMI 1640 medium (Thermo Scientific) supplemented with 20% fetal bovine serum (FBS, Thermo Scientific), 100 units/mL penicillin and 0.1 mg/mL streptomycin (Thermo Scientific) were seeded into 96-well plates at the density of 0.2 million cells per well and then treated with a series dilution of compounds. After 24 hours or 5 hours treatment, cells were pelleted via centrifugation and 40 μL lysis buffer (Cisbio) was added to each well after removal of the supernatant. Plates were then incubated at room temperature with shaking for 30 minutes. A total of 16 μL of cell lysates from each well of a 96-well plate was transferred to a 384-well white assay plate. IRAK4 level was quantitated using the HTRF kit as described by the manufacturer manual (Cisbio). FRET signals were measured using a PHERAstar FSX reader (BMG Labtech).
After treatment, add HTRF lysis buffer to each well; seal the plate and incubate 1 hour at room temperature on a plate shaker; Once the cells are lysed, 16 μL of cell lysate are transferred to a PE 384-well HTRF detection plate; 4 μL of pre-mixed HTRF antibodies are added to each well; Cover the plate with a plate sealer, spin 1000 rpm for 1 min, Incubate overnight at room temperature; Read on BMG PheraStar with HTRF protocol (337 nm-665 nm-620 nm).
The inhibition (degradation) percentage of the compound was calculated by the following equation: […]
The IC50 (DC50) value of a compound can be obtained by fitting the following equation
Wherein, X and Y are known values, and IC50, Hillslope, Top and Bottom are the parameters obtained by fitting with software. Y is the inhibition percentage (calculated from the equation), X is the concentration of the compound; IC50 is the concentration of the compound when the […] is reached. The smaller the IC50 value is, the stronger the inhibitory ability of the compound is. Vice versa, the higher the IC50 value is, the weaker the ability the inhibitory ability of the compound is; Hillslope represents the slope of the fitted curve, generally around 1 *; Bottom represents the minimum value of the curve obtained by data fitting, which is generally 0%±20%; Top represents the maximum value of the curve obtained by data fitting, which is generally 100%±20%. The experimental data were fitted by calculating and analyzing with Dotmatics data analysis software.

[1] = 24 h treatment, read-out: IRAK4 in Karpas-299 (24 h) Dmax (%)
[2] = 24 h treatment, read-out: IRAK4 in Karpas-299 (24 h) DC50

Structure (SMILES)	Dmax [1]	DC50 [2]	Dmax (5 h treatment, read-out: IRAK4 in Karpas-299 (5 h) Dmax (%))	DC50 (5 h treatment, read-out: IRAK4 in Karpas-299 (5 h) DC50)
O=C1CCN(c2c(F)cc(N3CC[C@H](C(=O)N4CCN([C@H]5CC[C@H](n6cc(NC(=O)c7cnn(-c8ccnc(NCC9CC9)c8)n7)c(C(F)F)n6)CC5)CC4)C3)cc2F)C(=O)N1 [Example 63, 2-(2-((cyclopropylmethyl)amino)pyridin-4-yl)-N-(3-(difluoromethyl)-1-((1S,4r)-4-(4-((S)-1-(4-(2,4-dioxotetrahydropyrimidin-1(2H)-yl)-3,5-difluorophenyl)pyrrolidine-3-carbonyl)piperazin-1-yl)cyclohexyl)-1H-pyrazol-4-yl)-2H-1,2,3-triazole-4-carboxamide]	95%	15 nM	–	–
O=C1CC[C@H](c2c(F)cc(N3CC(C(=O)N4CCN([C@H]5CC[C@H](n6cc7cc(NC(=O)c8cccc(C(F)(F)F)n8)c(C(=O)N[C@H]8C[C@H](CO)C8)cc7n6)CC5)CC4)C3)cc2F)C(=O)N1 [Example 167, 2-((1r,4R)-4-(4-(1-(4-((R)-2,6-dioxopiperidin-3-yl)-3,5-difluorophenyl)azetidine-3-carbonyl)piperazin-1-yl)cyclohexyl)-N-((1r,3R)-3-(hydroxymethyl)cyclobutyl)-5-(6-(trifluoromethyl)picolinamido)-2H-indazole-6-carboxamide]	99%	0.8 nM	94%	5.3 nM
CCC(C)c1cc(-c2nc(C(=O)Nc3cn([C@H]4CC[C@H](N5CCN(C(=O)[C@@H]6CCN(c7cc(F)c([C@H]8CCC(=O)NC8=O)c(F)c7)C6)CC5)CC4)nc3C(F)F)co2)ccn1 (stereo partly drawn) [Example 170, 2-(2-(sec-butyl)pyridin-4-yl)-N-(3-(difluoromethyl)-1-((1R,4r)-4-(4-((R)-1-(4-((R)-2,6-dioxopiperidin-3-yl)-3,5-difluorophenyl)pyrrolidine-3-carbonyl)piperazin-1-yl)cyclohexyl)-1H-pyrazol-4-yl)oxazole-4-carboxamide]	96%	6.8 nM	–	–
O=C1CC[C@H](c2c(F)cc(N3CC[C@@H](C(=O)N4CCN([C@H]5CC[C@H](n6cc(NC(=O)c7coc(-c8ccnc(NCC9CC9)c8)n7)c(C(F)F)n6)CC5)CC4)C3)cc2F)C(=O)N1 [Example 26, 2-(2-((cyclopropylmethyl)amino)pyridin-4-yl)-N-(3-(difluoromethyl)-1-((1R,4r)-4-(4-((R)-1-(4-((R)-2,6-dioxopiperidin-3-yl)-3,5-difluorophenyl)pyrrolidine-3-carbonyl)piperazin-1-yl)cyclohexyl)-1H-pyrazol-4-yl)oxazole-4-carboxamide]	99%	2.2 nM	–	–
CC(C)(O)c1cc2nn([C@H]3CC[C@H](N4CCN(CCc5cc(F)c([C@H]6CCC(=O)NC6=O)c(F)c5)CC4)CC3)cc2cc1NC(=O)c1ccn2cc(C#N)cnc12 [Example 413, 3-cyano-N-(2-((1R,4r)-4-(4-(4-((R)-2,6-dioxopiperidin-3-yl)-3,5-difluorophenethyl)piperazin-1-yl)cyclohexyl)-6-(2-hydroxypropan-2-yl)-2H-indazol-5-yl)pyrrolo[1,2-a]pyrimidine-8-carboxamide]	25%	> 1000 nM	–	–
CC(C)(O)c1cc2nn([C@H]3C[C@H](N4CCN(C5CN(c6cc(F)c([C@H]7CCC(=O)NC7=O)c(F)c6)C5)CC4)C3)cc2cc1NC(=O)c1ccc2cc(C#N)cnn12 [Example 331, 3-cyano-N-(2-((1R,3r)-3-(4-(1-(4-((R)-2,6-dioxopiperidin-3-yl)-3,5-difluorophenyl)azetidin-3-yl)piperazin-1-yl)cyclobutyl)-6-(2-hydroxypropan-2-yl)-2H-indazol-5-yl)pyrrolo[1,2-b]pyridazine-7-carboxamide]	92%	3.7 nM	–	–

— US20250195513A1, “DEGRADATION OF IRAK4 BY CONJUGATION OF IRAK4 INHIBITORS WITH E3 LIGASE LIGAND AND METHODS OF USE” (BeiGene, Ltd., priority 2022, published 2025)
